Laboratory results reported in ChEMBL document CHEMBL1201862, “PubChem BioAssay data set” (2004).
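1) Cells in 96-well plates. 2) Compound, 48 h, 5 concentrations. 3) Linear interpolation between surrounding doses. 4) Unreached endpoint = highest concentration. GI50: concentration for 50% inhibition of growth.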 Activity calls are given as the source filed them. Cut-off read from the data, not from the text of the source: active = GI50 up to about 1.1 µM and inactive = higher.

Tests used:
Experiment in all cases: NCI anticancer screen, dose series, 48 h
786-0 = tested on: 786-0
A498 = tested on: A498
A549 = tested on: A549
ACHN = tested on: ACHN
BT-549 = tested on: BT-549
CAKI-1 = tested on: CAKI-1
CCRF-CEM = tested on: CCRF-CEM
COLO 205 = tested on: COLO 205
DU-145 = tested on: DU-145
EKVX = tested on: EKVX
HCC 2998 = tested on: HCC 2998
HCT-116 = tested on: HCT-116
HCT-15 = tested on: HCT-15
HL-60 = tested on: HL-60
HOP-62 = tested on: HOP-62
HT-29 = tested on: HT-29
Hs-578T = tested on: Hs-578T
IGROV-1 = tested on: IGROV-1
K562 = tested on: K562
KM12 = tested on: KM12
LOX IMVI = tested on: LOX IMVI
M14 = tested on: M14
MCF7 = tested on: MCF7
MDA-MB-231 = tested on: MDA-MB-231
MDA-MB-435 = tested on: MDA-MB-435
Malme-3M = tested on: Malme-3M
NCI-H226 = tested on: NCI-H226
NCI-H23 = tested on: NCI-H23
NCI-H460 = tested on: NCI-H460
NCI-H522 = tested on: NCI-H522
NCI/ADR-RES = tested on: NCI/ADR-RES
OVCAR-3 = tested on: OVCAR-3
OVCAR-5 = tested on: OVCAR-5
OVCAR-8 = tested on: OVCAR-8
PC-3 = tested on: PC-3
RPMI-8226 = tested on: RPMI-8226
SF-268 = tested on: SF-268
SF-295 = tested on: SF-295
SF-539 = tested on: SF-539
SK-MEL-28 = tested on: SK-MEL-28
SK-MEL-2 = tested on: SK-MEL-2
SK-MEL-5 = tested on: SK-MEL-5
SN12C = tested on: SN12C
SNB-19 = tested on: SNB-19
SR = tested on: SR
SW-620 = tested on: SW-620
T47D = tested on: T47D
TK-10 = tested on: TK-10
U-251 = tested on: U-251
UACC-257 = tested on: UACC-257
UACC-62 = tested on: UACC-62
UO-31 = tested on: UO-31
HOP-92 = tested on: HOP-92
MDA-N = tested on: MDA-N
MOLT-4 = tested on: MOLT-4
OVCAR-4 = tested on: OVCAR-4
RXF 393 = tested on: RXF 393
SK-OV-3 = tested on: SK-OV-3
SNB-75 = tested on: SNB-75

For CCOC(=O)C(CO)c1nc2c([nH]c1=O)c(=O)n(C)c(=O)n2C (stereo not drawn), which GI50 (786-0) is on record?
The GI50 was > 100 µM (inactive).

And the GI50 (A498)?
Its GI50 is 0.608 µM (active).

What about the GI50 (A549) of the same molecule?
Its GI50 is > 100 µM (inactive).

And the GI50 (ACHN)?
The GI50 was > 100 µM (inactive).

What about the GI50 (BT-549) of the same molecule?
The GI50 was > 100 µM (inactive).

What about the GI50 (CAKI-1) of the same molecule?
The GI50 was > 100 µM (inactive).

And the GI50 (CCRF-CEM)?
Its GI50 is > 100 µM (inactive).

What about the GI50 (COLO 205) of the same molecule?
Its GI50 is > 100 µM (inactive).

What about the GI50 (DU-145) of the same molecule?
Its GI50 is > 100 µM (inactive).

What about the GI50 (EKVX) of the same molecule?
Its GI50 is > 100 µM (inactive).

And the GI50 (HCC 2998)?
The GI50 was > 100 µM (inactive).

And the GI50 (HCT-116)?
The GI50 was > 100 µM (inactive).

What about the GI50 (HCT-15) of the same molecule?
The GI50 was greater than 100 µM.

What about the GI50 (HL-60) of the same molecule?
The GI50 was > 100 µM (inactive).

What about the GI50 (HOP-62) of the same molecule?
Its GI50 is > 100 µM (inactive).

What about the GI50 (HT-29) of the same molecule?
The GI50 was > 100 µM (inactive).

What about the GI50 (Hs-578T) of the same molecule?
The GI50 was > 100 µM (inactive).

And the GI50 (IGROV-1)?
Its GI50 is > 100 µM (inactive).

What about the GI50 (K562) of the same molecule?
The GI50 was > 100 µM (inactive).

And the GI50 (KM12)?
Its GI50 is > 100 µM (inactive).

What about the GI50 (LOX IMVI) of the same molecule?
The GI50 was > 100 µM (inactive).

And the GI50 (M14)?
The GI50 was > 100 µM (inactive).

And the GI50 (MCF7)?
The GI50 was > 100 µM (inactive).

What about the GI50 (MDA-MB-231) of the same molecule?
Its GI50 is > 100 µM (inactive).

And the GI50 (MDA-MB-435)?
Its GI50 is > 100 µM (inactive).

And the GI50 (Malme-3M)?
The GI50 was > 100 µM (inactive).

What about the GI50 (NCI-H226) of the same molecule?
The GI50 was > 100 µM (inactive).

And the GI50 (NCI-H23)?
The GI50 was > 100 µM (inactive).

And the GI50 (NCI-H460)?
Its GI50 is > 100 µM (inactive).

And the GI50 (NCI-H522)?
The GI50 was > 100 µM (inactive).

And the GI50 (NCI/ADR-RES)?
The GI50 was > 100 µM (inactive).

And the GI50 (OVCAR-3)?
Its GI50 is > 100 µM (inactive).

And the GI50 (OVCAR-5)?
The GI50 was > 100 µM (inactive).

And the GI50 (OVCAR-8)?
The GI50 was > 100 µM (inactive).

What about the GI50 (PC-3) of the same molecule?
The GI50 was > 100 µM (inactive).

And the GI50 (RPMI-8226)?
The GI50 was > 100 µM (inactive).

And the GI50 (SF-268)?
Its GI50 is > 100 µM (inactive).

And the GI50 (SF-295)?
Its GI50 is > 100 µM (inactive).

And the GI50 (SF-539)?
The GI50 was > 100 µM (inactive).

And the GI50 (SK-MEL-28)?
Its GI50 is > 100 µM (inactive).

What about the GI50 (SK-MEL-2) of the same molecule?
The GI50 was > 100 µM (inactive).

What about the GI50 (SK-MEL-5) of the same molecule?
The GI50 was 0.579 µM (active).

What about the GI50 (SN12C) of the same molecule?
Its GI50 is > 100 µM (inactive).

And the GI50 (SNB-19)?
The GI50 was > 100 µM (inactive).

And the GI50 (SR)?
The GI50 was > 100 µM (inactive).

And the GI50 (SW-620)?
Its GI50 is > 100 µM (inactive).

What about the GI50 (T47D) of the same molecule?
The GI50 was 13.7 µM (inactive).

What about the GI50 (TK-10) of the same molecule?
Its GI50 is > 100 µM (inactive).

And the GI50 (U-251)?
Its GI50 is > 100 µM (inactive).

And the GI50 (UACC-257)?
Its GI50 is > 100 µM (inactive).

What about the GI50 (UACC-62) of the same molecule?
The GI50 was > 100 µM (inactive).

And the GI50 (UO-31)?
The GI50 was > 100 µM (inactive).

For Nc1nc(Cl)cc(NCC2(CO)CC(CCCCc3ccccc3)C2)n1 (stereo not drawn), which GI50 (786-0) is on record?
The GI50 was 42.3 µM (inactive).

What about the GI50 (A498) of the same molecule?
The GI50 was 18.1 µM (inactive).

What about the GI50 (A549) of the same molecule?
Its GI50 is 16.1 µM (inactive).

And the GI50 (ACHN)?
Its GI50 is > 100 µM (inactive).

What about the GI50 (BT-549) of the same molecule?
The GI50 was > 100 µM (inactive).

And the GI50 (CAKI-1)?
The GI50 was 82.8 µM (inactive).

And the GI50 (CCRF-CEM)?
Its GI50 is 0.0875 µM (active).

What about the GI50 (COLO 205) of the same molecule?
The GI50 was 27.9 µM (inactive).

And the GI50 (DU-145)?
Its GI50 is > 100 µM (inactive).

And the GI50 (EKVX)?
Its GI50 is > 100 µM (inactive).

And the GI50 (HCC 2998)?
The GI50 was 37.7 µM (inactive).

And the GI50 (HCT-116)?
The GI50 was 29 µM (inactive).

What about the GI50 (HCT-15) of the same molecule?
Its GI50 is 34.8 µM.

And the GI50 (HL-60)?
The GI50 was 6.55 µM (inactive).

What about the GI50 (HOP-62) of the same molecule?
Its GI50 is 99.8 µM (inactive).

And the GI50 (HOP-92)?
The GI50 was 96.4 µM (inactive).

And the GI50 (HT-29)?
Its GI50 is 13.7 µM (inactive).

And the GI50 (Hs-578T)?
The GI50 was 70.6 µM (inactive).

What about the GI50 (IGROV-1) of the same molecule?
The GI50 was > 100 µM (inactive).

And the GI50 (K562)?
Its GI50 is 2.23 µM (inactive).

What about the GI50 (KM12) of the same molecule?
Its GI50 is 65 µM (inactive).

What about the GI50 (LOX IMVI) of the same molecule?
Its GI50 is 5.73 µM (inactive).

And the GI50 (M14)?
The GI50 was 67.6 µM (inactive).

And the GI50 (MCF7)?
Its GI50 is 7.55 µM (inactive).

What about the GI50 (MDA-MB-231) of the same molecule?
Its GI50 is 30.6 µM (inactive).

What about the GI50 (MDA-MB-435) of the same molecule?
Its GI50 is 42.9 µM (inactive).

What about the GI50 (MDA-N) of the same molecule?
The GI50 was 89.1 µM (inactive).

And the GI50 (MOLT-4)?
The GI50 was 3.36 µM (inactive).

And the GI50 (Malme-3M)?
Its GI50 is 16.3 µM (inactive).

What about the GI50 (NCI-H226) of the same molecule?
Its GI50 is > 100 µM (inactive).

And the GI50 (NCI-H23)?
Its GI50 is 21.8 µM (inactive).

And the GI50 (NCI-H460)?
The GI50 was 40.8 µM (inactive).

And the GI50 (NCI-H522)?
The GI50 was 66.7 µM (inactive).

What about the GI50 (OVCAR-3) of the same molecule?
The GI50 was > 100 µM (inactive).

What about the GI50 (OVCAR-4) of the same molecule?
The GI50 was > 100 µM (inactive).

And the GI50 (OVCAR-5)?
The GI50 was > 100 µM (inactive).

And the GI50 (OVCAR-8)?
The GI50 was 27.2 µM (inactive).

What about the GI50 (PC-3) of the same molecule?
Its GI50 is 46.1 µM (inactive).

What about the GI50 (RPMI-8226) of the same molecule?
Its GI50 is 10.9 µM (inactive).

What about the GI50 (RXF 393) of the same molecule?
Its GI50 is 34.6 µM (inactive).

And the GI50 (SF-268)?
Its GI50 is > 100 µM (inactive).

And the GI50 (SF-295)?
The GI50 was 18.2 µM (inactive).

What about the GI50 (SF-539) of the same molecule?
The GI50 was > 100 µM (inactive).

And the GI50 (SK-MEL-28)?
The GI50 was > 100 µM (inactive).

And the GI50 (SK-MEL-2)?
Its GI50 is > 100 µM (inactive).

What about the GI50 (SK-MEL-5) of the same molecule?
The GI50 was 3.86 µM (inactive).

And the GI50 (SK-OV-3)?
Its GI50 is > 100 µM (inactive).

And the GI50 (SN12C)?
The GI50 was > 100 µM (inactive).

What about the GI50 (SNB-19) of the same molecule?
Its GI50 is > 100 µM (inactive).

And the GI50 (SNB-75)?
Its GI50 is 81.3 µM (inactive).

What about the GI50 (SR) of the same molecule?
Its GI50 is 19.2 µM (inactive).

And the GI50 (SW-620)?
Its GI50 is 78.7 µM (inactive).

And the GI50 (TK-10)?
Its GI50 is > 100 µM (inactive).

And the GI50 (U-251)?
Its GI50 is > 100 µM (inactive).

What about the GI50 (UACC-257) of the same molecule?
Its GI50 is 61.9 µM (inactive).

And the GI50 (UACC-62)?
The GI50 was > 100 µM (inactive).
